Data set [1] concerns the target T1, Androgen receptor (Homo sapiens) (UniProt P10275).
T1 sequence (whole entry): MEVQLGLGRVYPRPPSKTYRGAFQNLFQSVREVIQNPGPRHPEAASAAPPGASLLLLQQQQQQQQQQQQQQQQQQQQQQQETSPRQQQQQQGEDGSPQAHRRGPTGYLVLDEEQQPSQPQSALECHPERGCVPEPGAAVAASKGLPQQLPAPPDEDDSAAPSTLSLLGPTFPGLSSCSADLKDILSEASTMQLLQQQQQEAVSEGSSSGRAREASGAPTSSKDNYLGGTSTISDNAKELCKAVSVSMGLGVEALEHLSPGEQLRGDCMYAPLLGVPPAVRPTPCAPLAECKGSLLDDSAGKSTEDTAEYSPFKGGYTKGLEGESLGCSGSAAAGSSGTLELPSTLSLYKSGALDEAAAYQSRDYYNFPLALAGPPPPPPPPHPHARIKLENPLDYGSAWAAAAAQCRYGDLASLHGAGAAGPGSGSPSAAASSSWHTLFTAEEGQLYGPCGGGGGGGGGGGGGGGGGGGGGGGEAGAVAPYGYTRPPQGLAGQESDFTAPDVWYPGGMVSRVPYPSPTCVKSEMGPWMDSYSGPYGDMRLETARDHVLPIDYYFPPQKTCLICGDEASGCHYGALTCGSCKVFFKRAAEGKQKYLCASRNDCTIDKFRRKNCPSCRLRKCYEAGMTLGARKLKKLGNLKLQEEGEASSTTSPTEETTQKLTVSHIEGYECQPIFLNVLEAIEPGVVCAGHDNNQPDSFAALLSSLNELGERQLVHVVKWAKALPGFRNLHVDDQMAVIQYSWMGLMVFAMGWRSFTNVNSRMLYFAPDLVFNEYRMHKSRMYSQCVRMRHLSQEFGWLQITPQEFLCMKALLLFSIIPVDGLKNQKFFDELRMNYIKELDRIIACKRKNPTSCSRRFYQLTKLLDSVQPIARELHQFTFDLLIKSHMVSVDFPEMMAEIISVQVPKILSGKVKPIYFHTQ
Kind of data set: Agonist activity at androgen receptor in human LNAR cells expressing ARE-PSA-LUC at 1 uM by luminescence analysis relative to RD-162. It is filed as functional, cell-based.

Data set [2] has as its target T1, Androgen receptor (Homo sapiens). Nature of the data set: Antagonist activity at androgen receptor in human LNAR cells expressing ARE-PSA-LUC at 1 uM by luminescence analysis in presence of R1881. The format is functional, cell-based.
A short description of data set [3]: Aqueous solubility of the compound. It is filed as physicochemical.
The target in data set [4] is T2, Androgen receptor (Homo sapiens, UniProt P10275).
T2 sequence (P10275 whole entry): T1 sequence (whole entry)
Nature of the data set: Antagonist activity at androgen receptor in human LNAR cells expressing ARE-PSA-LUC by luminescence analysis in presence of R1881. It is filed as functional, cell-based.

A short description of data set [5]: Metabolic stability in human liver microsomes assessed as extraction ratio. The format is ADME, Microsome. The following applies: read-out: ERH.

Values after ≈ are worked out from the molar mass of the structure shown.

In general, inhibition refers to the relative decrease from the control value, in per cent. As a reminder, the solubility is how much of the substance goes into solution per volume. In the case of `N#Cc1ncc(-n2c(=O)n(Cc3ccccc3)c3cccnc32)cc1C(F)(F)F`, in data set [1], the fold change (FC) came out at 1.1. Also, in data set [2], the inhibition was found to be 96.3%. Further, the solubility in data set [3] (aqueous, read-out: solubility) was found to be 1.7 µM (≈ 0.672 µg/mL).
The matching figures for `Cc1ccc(-n2c(=O)n(-c3ccc(C#N)c(C(F)(F)F)c3)c3ccccc32)cc1`: 0.88, 12.6% and 0.79 µM (≈ 0.311 µg/mL).
As usually defined, the IC50 is the concentration that gives 50% inhibition. On to `CC(c1nc(-c2ccccn2)no1)n1c(=O)n(-c2ccc(C#N)c(Cl)c2)c2ccccc21` (single isomer, unassigned; (+)) [listing 1 of 2 here], for which the IC50 in data set [4] worked out at 178 nM. In data set [3] (aqueous, read-out: solubility), the solubility stood at 9.45 µM (≈ 4.19 µg/mL).
For the compound `CNC(=O)c1ccc(-c2ccc3c(c2)C(C)(C)C(=O)N3c2ccc(C#N)c(OC)c2)cc1F`, the IC50 in data set [4] stood at 165 nM. Further, the fold change (FC) in data set [1] turned out to be 0.884. Besides, the solubility in data set [3] (aqueous, read-out: solubility) is 9.7 µM (≈ 4.3 µg/mL). Moreover, the hepatic extraction ratio in data set [5] was less than 0.25.
As to `N#Cc1ncc(-n2c(=O)n(Cc3ccccc3)c3ccccc32)cc1C(F)(F)F`, the fold change (FC) in data set [1] was found to be 1.04. Also, in data set [2], the inhibition was found to be 91%. Further, the solubility in data set [3] (aqueous, read-out: solubility) came to 5.3 µM (≈ 2.09 µg/mL).
On to `N#Cc1ccc(-n2c(=O)n(Cc3ccccc3)c3ncccc32)cc1C(F)(F)F`, for which the IC50 in data set [4] was 588 nM. Moreover, the fold change (FC) in data set [1] is 0.951.
With `N#Cc1ccc(-n2c(=O)n(Cc3cccnc3)c3ccccc32)cc1C(F)(F)F`, the half-inhibitory concentration (IC50) in data set [4] worked out at 389 nM. In data set [1], the fold change (FC) is 0.984. Besides, the solubility in data set [3] (aqueous, read-out: solubility) turned out to be 2.5 µM (≈ 0.986 µg/mL).
In the case of `CNC(=O)c1ccc(-n2c(=O)n(-c3ccc(C#N)c(C(F)(F)F)c3)c3ccccc32)cc1F`, the fold change (FC) in data set [1] was found to be 1.44. Besides, the inhibition in data set [2] turned out to be 28.7%. In addition, the solubility in data set [3] (aqueous, read-out: solubility) amounted to 8.81 µM (≈ 4 µg/mL).
Take `N#Cc1ccc(-n2c(=O)[nH]c3ccccc32)cc1C(F)(F)F`: the fold change (FC) in data set [1] came to 6.2. Further, the inhibition in data set [2] was determined as 60.1%. Also, the solubility in data set [3] (aqueous, read-out: solubility) worked out at 7.9 µM (≈ 2.4 µg/mL).
On the same counts, the results for `N#CCn1c(=O)n(-c2ccc(C#N)c(C(F)(F)F)c2)c2ccccc21` are 1.42, 94.8% and 18.9 µM (≈ 6.47 µg/mL).
`CC1(C)C(=O)N(c2ccc(C#N)c(C(F)(F)F)c2)c2ccccc21`: the fold change (FC) in data set [1] came out at 1.96. The inhibition in data set [2] stood at 75.7%.
As for `CNC(=O)c1ccc(Cn2c(=O)n(-c3ccc(C#N)c(C(F)(F)F)c3)c3ccccc32)cc1F`, in data set [1], the fold change (FC) stood at 1.08. In data set [2], the inhibition stood at 72.5%. In data set [3] (aqueous, read-out: solubility), the solubility was determined as 9.9 µM (≈ 4.64 µg/mL).
Take `CC(c1nc(-c2ccccn2)no1)n1c(=O)n(-c2ccc(C#N)c(Cl)c2)c2ccccc21` (single isomer, unassigned; (+)) [listing 2 of 2 here]: the fold change (FC) in data set [1] was determined as 0.874.
In the case of `CC(c1ccccc1)n1c(=O)n(-c2ccc(C#N)c(C(F)(F)F)c2)c2ccccc21` (single isomer, unassigned; (+)) [listing 1 of 2 here], in data set [4], the IC50 is 292 nM. Moreover, the solubility in data set [3] (buffer) amounted to 4.41 µM (≈ 1.8 µg/mL).
On to `N#Cc1ccc(-n2c(=O)n(Cc3ccccc3)c3cccnc32)cc1C(F)(F)F`, for which, in data set [4], the IC50 worked out at 60.6 nM. The fold change (FC) in data set [1] was 1.13. Further, the solubility in data set [3] (aqueous, read-out: solubility) is less than 0.5 µM.
In the case of `N#Cc1ccc(-n2c(=O)n(Cc3ccccc3)c3ccccc32)cc1C(F)(F)F`, the IC50 in data set [4] came to 170 nM. For the same compound, in data set [1], the fold change (FC) came to 1.04. Further, the solubility in data set [3] (aqueous, read-out: solubility) is less than 0.16 µM.
For the compound `N#Cc1ccc(-n2c(=O)n(Cc3ccccn3)c3ccccc32)cc1C(F)(F)F`, the IC50 in data set [4] was found to be 301 nM. Besides, in data set [1], the fold change (FC) is 1.03. Further, the solubility in data set [3] (aqueous, read-out: solubility) is 12 µM (≈ 4.73 µg/mL).
Consider `CC(c1ccccc1)n1c(=O)n(-c2ccc(C#N)c(C(F)(F)F)c2)c2ccccc21` (single isomer, unassigned; (+)) [listing 2 of 2 here], for which the fold change (FC) in data set [1] came to 0.904.
On to `CC(c1nc(-c2ccccn2)no1)n1c(=O)n(-c2ccc(C#N)c(Cl)c2)c2ccccc21` (stereo in doubt; (-)-23) [listing 1 of 2 here], for which the fold change (FC) in data set [1] worked out at 0.945.
As to `CC(c1ccccc1)n1c(=O)n(-c2ccc(C#N)c(C(F)(F)F)c2)c2ccccc21` (stereo in doubt; (-)-20) [listing 1 of 2 here], in data set [4], the half-inhibitory concentration (IC50) is 363 nM. In addition, the solubility in data set [3] (aqueous, read-out: solubility) is 5.58 µM (≈ 2.27 µg/mL).
Take `CCn1c(=O)n(-c2ccc(C#N)c(C(F)(F)F)c2)c2ccccc21`: the IC50 in data set [4] is 293 nM. Moreover, the fold change (FC) in data set [1] was determined as 1.08. Besides, the solubility in data set [3] (aqueous, read-out: solubility) is 3.47 µM (≈ 1.15 µg/mL).
Regarding `CNC(=O)c1ccc(-c2ccc3c(c2)C(C)(C)C(=O)N3c2ccc(C#N)c(C(F)(F)F)c2)cc1F`, the IC50 in data set [4] came to 197 nM. Also, the fold change (FC) in data set [1] worked out at 0.941. Further, the solubility in data set [3] (aqueous, read-out: solubility) turned out to be 6.25 µM (≈ 3.01 µg/mL). For the same compound, in data set [5], the hepatic extraction ratio was 0.4.
On to `N#Cc1ccc(-n2c(=O)n(Cc3nc(-c4ccccn4)no3)c3ccccc32)cc1Cl`, for which, in data set [4], the IC50 was 126 nM. In addition, the fold change (FC) in data set [1] amounted to 0.941. Also, the solubility in data set [3] (aqueous, read-out: solubility) stood at 5.9 µM (≈ 2.53 µg/mL).
On the same counts, the results for `CC(C)n1c(=O)n(-c2ccc(C#N)c(C(F)(F)F)c2)c2ccccc21` are 373 nM, 0.965 and 9.3 µM (≈ 3.21 µg/mL).
As to `CC(c1ccccc1)n1c(=O)n(-c2ccc(C#N)c(C(F)(F)F)c2)c2ccccc21` (stereo in doubt; (-)-20) [listing 2 of 2 here], the fold change (FC) in data set [1] was found to be 0.833.
On to `CC(c1nc(-c2ccccn2)no1)n1c(=O)n(-c2ccc(C#N)c(Cl)c2)c2ccccc21` (stereo in doubt; (-)-23) [listing 2 of 2 here], for which the IC50 in data set [4] came out at 189 nM.
As to `COc1cc(N2C(=O)C(C)(C)c3cc(-c4cccnc4OC)ccc32)ccc1C#N`, the IC50 in data set [4] was determined as 79.6 nM. Also, the fold change (FC) in data set [1] came to 1.04. Also, the solubility in data set [3] (aqueous, read-out: solubility) was found to be 9.8 µM (≈ 3.91 µg/mL).

The values are drawn from ChEMBL document CHEMBL2010717, “Design of oxobenzimidazoles and oxindoles as novel androgen receptor antagonists” (Bioorg Med Chem Lett, 2012).
